IC50 data for 14 compounds are collected here from patent US8129371B2, “Thienopyrimidine and pyrazolopyrimidine compounds and their use as mTOR kinase and PI3 kinase inhibitors” (Wyeth LLC, priority 2007, dated 2012).

Read-outs that look alike come from different tables or passages of the source.

The target in one assay is T1, Human mTOR (FLAG-TOR) (Homo sapiens, UniProt P42345).
T1 construct: FLAG
The assay is described as follows: Human mTOR kinase assay with purified enzyme, DELFIA format. The class given is biochemical. The method, boiled down: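 Purified FLAG-mTOR in HEPES pH 7.4 buffer with 10 mM MnCl2 was preincubated with inhibitor and reacted 2 h at room temperature with His6-S6K substrate, then stopped with EDTA/EGTA. Phospho-T389 S6K detected by DELFIA with Eu-labelled antibody (40 ng/mL) after plate capture; inhibition computed from signal.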

The test system of another assay is prostate line LNCap. Nature of the assay: In vitro cell culture growth assay (MTS), LNCap. The class given is cell-based. The following applies: Homo sapiens, LNCaP, 72 h, LNCap cells, three days after drug treatment. The method, boiled down:
(§1)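 Viable cell density is assessed three days after inhibitor addition via MTS conversion, normalised to vehicle-treated cells.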

The next assay deals with breast line MDA468. The assay is described as follows: In vitro cell culture growth assay (MTS), MDA468. The class given is cell-based. The following applies: Homo sapiens, 72 h, MDA468 cells, three days after drug treatment. The method, boiled down:
as §1

Assay [1] has as its target T2, PI3K (Homo sapiens, UniProt P42336).
T2 construct: PI3 Kinase α IC50; other: PI3 Kinase α; other: PI3 Kinase α isoform, fluorescence polarization
Nature of the assay: Fluorescence polarization assay for PI3K. The class given is biochemical. The following applies: read-out: PI3 Kinase α IC50. Put shortly: (§2)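 PI3K was preincubated with compound (final DMSO 1%), and the reaction was started with PIP2/ATP substrate and run 30–60 min. It was stopped with a detector mix giving 10 nM red probe and 70 nM GST-GRP.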
A general note: Fluorescence polarisation rises when a labelled molecule tumbles more slowly, as on binding a larger partner.

Assay [2] has as its target T3, PI3K (Homo sapiens, UniProt P48736).
T3 construct: PI3 Kinase γ IC50; other: PI3 Kinase γ; other: PI3 Kinase γ isoform, fluorescence polarization
The assay is described as follows: Fluorescence polarization assay for PI3K. The class given is biochemical. Particulars: read-out: PI3 Kinase γ IC50. Put shortly:
as §2

[3] abbreviates: purified human mTOR enzyme, DELFIA format.
[4] abbreviates: PI3 Kinase α isoform, fluorescence polarization.
Where [5] appears, read: PI3 Kinase γ isoform, fluorescence polarization.

T2 sequence (P42336 whole entry, canonical isoform): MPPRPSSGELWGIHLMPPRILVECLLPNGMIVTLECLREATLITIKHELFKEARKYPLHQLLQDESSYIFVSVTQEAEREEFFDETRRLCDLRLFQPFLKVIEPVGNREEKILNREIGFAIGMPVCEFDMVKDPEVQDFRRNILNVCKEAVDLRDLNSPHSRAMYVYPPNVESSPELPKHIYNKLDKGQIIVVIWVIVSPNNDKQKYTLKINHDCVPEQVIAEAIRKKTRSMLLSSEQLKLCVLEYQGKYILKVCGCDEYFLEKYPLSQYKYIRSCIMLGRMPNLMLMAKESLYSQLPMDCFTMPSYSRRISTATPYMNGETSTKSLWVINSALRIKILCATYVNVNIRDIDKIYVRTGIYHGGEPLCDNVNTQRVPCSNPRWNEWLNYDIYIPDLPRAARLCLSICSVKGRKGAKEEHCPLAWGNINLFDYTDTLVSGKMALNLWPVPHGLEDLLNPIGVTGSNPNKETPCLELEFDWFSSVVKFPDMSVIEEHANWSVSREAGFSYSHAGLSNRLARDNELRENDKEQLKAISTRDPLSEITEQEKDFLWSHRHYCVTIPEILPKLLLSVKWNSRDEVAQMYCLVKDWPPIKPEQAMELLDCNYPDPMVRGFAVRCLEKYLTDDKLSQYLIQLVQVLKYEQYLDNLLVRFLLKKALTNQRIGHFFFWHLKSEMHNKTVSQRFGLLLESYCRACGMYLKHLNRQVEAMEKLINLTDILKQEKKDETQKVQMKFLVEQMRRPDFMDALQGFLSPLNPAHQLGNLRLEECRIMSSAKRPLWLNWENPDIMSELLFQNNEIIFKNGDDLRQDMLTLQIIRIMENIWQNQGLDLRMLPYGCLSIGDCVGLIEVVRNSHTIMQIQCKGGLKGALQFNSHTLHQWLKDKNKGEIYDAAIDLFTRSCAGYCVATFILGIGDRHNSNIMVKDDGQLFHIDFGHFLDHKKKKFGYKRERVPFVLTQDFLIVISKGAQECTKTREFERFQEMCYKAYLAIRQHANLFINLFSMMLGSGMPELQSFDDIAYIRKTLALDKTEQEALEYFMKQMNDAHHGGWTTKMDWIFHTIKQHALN
T3 sequence (P48736 whole entry, canonical isoform): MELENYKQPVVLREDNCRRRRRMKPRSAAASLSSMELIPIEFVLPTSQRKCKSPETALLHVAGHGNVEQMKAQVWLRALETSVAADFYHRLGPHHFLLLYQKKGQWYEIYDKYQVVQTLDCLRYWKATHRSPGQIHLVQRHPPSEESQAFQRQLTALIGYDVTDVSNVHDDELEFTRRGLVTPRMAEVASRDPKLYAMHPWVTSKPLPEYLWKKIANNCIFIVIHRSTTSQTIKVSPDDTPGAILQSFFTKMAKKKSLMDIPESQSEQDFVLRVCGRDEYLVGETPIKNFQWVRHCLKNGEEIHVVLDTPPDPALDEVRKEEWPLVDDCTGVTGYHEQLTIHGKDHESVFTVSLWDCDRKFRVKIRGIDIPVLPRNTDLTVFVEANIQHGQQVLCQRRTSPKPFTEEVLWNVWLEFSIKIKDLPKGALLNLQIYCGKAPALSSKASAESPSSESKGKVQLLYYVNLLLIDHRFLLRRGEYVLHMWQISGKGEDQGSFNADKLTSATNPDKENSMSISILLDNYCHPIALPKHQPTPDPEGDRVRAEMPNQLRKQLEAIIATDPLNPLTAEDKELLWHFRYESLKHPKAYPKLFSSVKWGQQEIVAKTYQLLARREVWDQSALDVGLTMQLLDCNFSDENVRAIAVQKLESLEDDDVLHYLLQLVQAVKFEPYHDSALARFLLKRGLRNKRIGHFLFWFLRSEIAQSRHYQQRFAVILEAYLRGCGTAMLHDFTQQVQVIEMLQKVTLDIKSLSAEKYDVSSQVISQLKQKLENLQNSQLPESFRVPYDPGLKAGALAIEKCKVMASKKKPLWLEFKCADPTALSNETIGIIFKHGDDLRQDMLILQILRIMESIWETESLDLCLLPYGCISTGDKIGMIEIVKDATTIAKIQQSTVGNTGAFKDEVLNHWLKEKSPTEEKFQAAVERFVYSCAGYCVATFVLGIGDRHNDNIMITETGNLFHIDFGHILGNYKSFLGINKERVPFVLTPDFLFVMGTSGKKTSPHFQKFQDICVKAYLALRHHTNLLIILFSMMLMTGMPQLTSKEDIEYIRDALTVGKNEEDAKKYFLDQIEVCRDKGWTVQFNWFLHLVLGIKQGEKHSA

On to `COC(=O)Nc1ccc(-c2nc(N3CC4CCC(C3)O4)c3cnn(CC(F)(F)F)c3n2)cc1` [Example 2, methyl {4-[4-(8-oxa-3-azabicyclo[3.2.1]oct-3-yl)-1-(2,2,2-trifluoroethyl)-1H-pyrazolo[3,4-d]pyrimidin-6-yl]phenyl}carbamate], for which the IC50 (as a rule, the concentration that inhibits the measured activity by half) is 8 nM against Human mTOR (FLAG-TOR); 650 nM in the assay with prostate line LNCap; 680 nM in the assay with breast line MDA468; > 10000 nM on PI3K [1] (PI3 Kinase α); > 10000 nM on PI3K [2] (PI3 Kinase γ).
Regarding `CCNC(=O)Nc1ccc(-c2nc(N3C4CCC3COC4)c3cnn(C4CCN(C(=O)OC)CC4)c3n2)cc1` [Example 357, methyl 4-[6-{4-[(ethylcarbamoyl)amino]phenyl}-4-(3-oxa-8-azabicyclo[3.2.1]oct-8-yl)-1H-pyrazolo[3,4-d]pyrimidin-1-yl]piperidine-1-carboxylate], the IC50 turned out to be 0.625 nM against Human mTOR (FLAG-TOR) (setting [3]); 9 nM in the assay with prostate line LNCap; 70 nM in the assay on breast line MDA468; 5550 nM at PI3K [1] (setting [4]); 9160 nM at PI3K [2] (setting [5]).
For the compound `CC(C)n1ncc2c(N3CC4CCC(C3)O4)nc(-c3ccc(NC(=O)Nc4ccccc4)cc3)nc21` [Example 147, 1-{4-[1-isopropyl-4-(8-oxa-3-azabicyclo[3.2.1]oct-3-yl)-1H-pyrazolo[3,4-d]pyrimidin-6-yl]phenyl}-3-phenylurea], the IC50 is 0.185 nM against Human mTOR (FLAG-TOR); < 1 nM in the assay on prostate line LNCap; 18 nM in the assay on breast line MDA468; 30 nM on PI3K [1] (PI3 Kinase α); 475 nM at PI3K [2] (PI3 Kinase γ).
As to `CCNC(=O)Nc1ccc(-c2nc(N3CC4CCC(C3)O4)c3cnn(C4CCN(C(=O)OC(C)(C)C)CC4)c3n2)cc1` [Example 20, tert-butyl4-[6-{4-[(ethylcarbamoyl)amino]phenyl}-4-(8-oxa-3-azabicyclo[3.2.1]oct-3-yl)-1H-pyrazolo[3,4-d]pyrimidin-1-yl]piperidine-1-carboxylate], the IC50 was 0.47 nM on Human mTOR (FLAG-TOR); 27 nM with prostate line LNCap; 98 nM in the assay with breast line MDA468; 2350 nM at PI3K [1] (PI3 Kinase α); > 10000 nM at PI3K [2] (PI3 Kinase γ).
Turning to `O=C(Nc1ccncc1)Nc1ccc(-c2nc(N3CC4CCC(C3)O4)c3cnn(C4CCC5(CCCO5)CC4)c3n2)cc1` (single isomer, unassigned) [Example 312, 1-(4-{4-(8-oxa-3-azabicyclo[3.2.1]oct-3-yl)-1-[(5r,8r)-1-oxaspiro[4.5]dec-8-yl]-1H-pyrazolo[3,4-d]pyrimidin-6-yl}phenyl)-3-pyridin-4-ylurea], the IC50 at Human mTOR (FLAG-TOR) (setting [3]) turned out to be 0.203 nM; in the assay on prostate line LNCap, 1 nM; in the assay on breast line MDA468, 12 nM; at PI3K [1] (setting [4]) it was 353 nM; on PI3K [2] (setting [5]) it was 2220 nM.
With `CC(C)(C)OC(=O)N1CCC(n2ncc3c(N4CC5CCC(C4)O5)nc(-c4ccc(NC(=O)NCCF)cc4)nc32)CC1` [Example 21, tert-butyl 4-[6-(4-{[(2-fluoroethyl)carbamoyl]amino}phenyl)-4-(8-oxa-3-azabicyclo[3.2.1]oct-3-yl)-1H-pyrazolo[3,4-d]pyrimidin-1-yl]piperidine-1-carboxylate], the IC50 against Human mTOR (FLAG-TOR) amounted to 0.24 nM; with prostate line LNCap, 12 nM; in the assay on breast line MDA468, 120 nM; at PI3K [1] (PI3 Kinase α), 3960 nM; on PI3K [2] (PI3 Kinase γ) it was 11000 nM.
On to `CCn1nc(C(O)CO)c2c(N3CC4CCC(C3)O4)nc(-c3ccc(NC(=O)NC)cc3)nc21` (stereo not shown) [Example 351, 1-{4-[3-(1,2-dihydroxyethyl)-1-ethyl-4-(8-oxa-3-azabicyclo[3.2.1]oct-3-yl)-1H-pyrazolo[3,4-d]pyrimidin-6-yl]phenyl}-3-methylurea], for which the IC50 against Human mTOR (FLAG-TOR) (setting [3]) was 9 nM; in the assay on prostate line LNCap, 1050 nM; in the assay with breast line MDA468, 1600 nM; at PI3K [1] (setting [4]), 2460 nM; at PI3K [2] (setting [5]) it was > 10000 nM.
For `O=C(Nc1ccc(-c2nc(N3CC4CCC(C3)O4)c3cnn(C4CCN(Cc5cccnc5)CC4)c3n2)cc1)Nc1cccnc1` [Example 18, 1-(4-{4-(8-oxa-3-azabicyclo[3.2.1]oct-3-yl)-1-[1-(pyridin-3-ylmethyl)piperidin-4-yl]-1H-pyrazolo[3,4-d]pyrimidin-6-yl}phenyl)-3-pyridin-3-ylurea], the IC50 is 0.25 nM on Human mTOR (FLAG-TOR); < 0.8 nM with prostate line LNCap; < 0.8 nM in the assay with breast line MDA468; 326 nM on PI3K [1] (PI3 Kinase α); 3480 nM at PI3K [2] (PI3 Kinase γ).
For the compound `CNC(=O)Nc1ccc(-c2nc(N3CC4CCC(C3)O4)c3cnn(C4CCN(CC(F)(F)F)CC4)c3n2)cc1` [Example 26, 1-methyl-3-(4-{4-(8-oxa-3-azabicyclo[3.2.1]oct-3-yl)-1-[1-(2,2,2-trifluoroethyl)piperidin-4-yl]-1H-pyrazolo[3,4-d]pyrimidin-6-yl}phenyl)urea], the IC50 against Human mTOR (FLAG-TOR) is 1.1 nM; in the assay with prostate line LNCap, 27 nM; in the assay with breast line MDA468 it was 190 nM; on PI3K [1] (PI3 Kinase α), 1280 nM; on PI3K [2] (PI3 Kinase γ), > 10000 nM.
The like results for `CCn1ncc2c(N3CC4CCC(C3)O4)nc(-c3ccc(NC(=O)Nc4ccc(OC)cc4)cc3)nc21` [Example 187, 1-{4-[1-ethyl-4-(8-oxa-3-azabicyclo[3.2.1]oct-3-yl)-1H-pyrazolo[3,4-d]pyrimidin-6-yl]phenyl}-3-(4-methoxyphenyl)urea] were, in that order, 0.405 nM, 1 nM, 19 nM, 199 nM and 3800 nM.
The like results for `O=C(Nc1ccc(CCO)cc1)Nc1ccc(-c2nc(N3C4CCC3COC4)c3cnn(CC(F)(F)F)c3n2)cc1` [Example 272, 1-[4-(2-hydroxyethyl)phenyl]-3-{4-[4-(3-oxa-8-azabicyclo[3.2.1]oct-8-yl)-1-(2,2,2-trifluoroethyl)-1H-pyrazolo[3,4-d]pyrimidin-6-yl]phenyl}urea] were, in that order, 0.106 nM, < 1 nM, 1 nM, 132 nM and 1150 nM.
Turning to `CC(C)(C)OC(=O)N1CCC(n2ncc3c(N4CC5CCC(C4)O5)nc(-c4ccc(NC(=O)Nc5ccncc5)cc4)nc32)CC1` [Example 25, tert-butyl 4-[4-(8-oxa-3-azabicyclo[3.2.1]oct-3-yl)-6-{4-[(pyridin-4-ylcarbamoyl)amino]phenyl}-1H-pyrazolo[3,4-d]pyrimidin-1-yl]piperidine-1-carboxylate], the IC50 at Human mTOR (FLAG-TOR) is 0.47 nM; in the assay on prostate line LNCap, 38 nM; in the assay with breast line MDA468, 70 nM; at PI3K [1] (PI3 Kinase α), 595 nM; at PI3K [2] (PI3 Kinase γ), 1640 nM.
As for `CNC(=O)Nc1ccc(-c2nc(N3CC4CCC(C3)O4)c3cnn(C)c3n2)cc1` [Example 50, 1-methyl-3-{4-[1-methyl-4-(8-oxa-3-azabicyclo[3.2.1]oct-3-yl)-1H-pyrazolo[3,4-d]pyrimidin-6-yl]phenyl}urea], the IC50 on Human mTOR (FLAG-TOR) is 2 nM; in the assay on prostate line LNCap, 170 nM; with breast line MDA468, 700 nM; at PI3K [1] (PI3 Kinase α), 247 nM; on PI3K [2] (PI3 Kinase γ), 6290 nM.
With `COC(=O)N1CCC(n2ncc3c(N4C5CCC4COC5)nc(-c4ccc(NC(=O)Nc5ccc(N6CCN(C)CC6)nc5)cc4)nc32)CC1` [Example 365, methyl 4-{6-[4-({[6-(4-methylpiperazin-1-yl)pyridin-3-yl]carbamoyl}amino)phenyl]-4-(3-oxa-8-azabicyclo[3.2.1]oct-8-yl)-1H-pyrazolo[3,4-d]pyrimidin-1-yl}piperidine-1-carboxylate], the IC50 at Human mTOR (FLAG-TOR) (setting [3]) amounted to 0.795 nM; with prostate line LNCap it was 4 nM; with breast line MDA468, 12 nM; at PI3K [1] (setting [4]) it was 2590 nM; on PI3K [2] (setting [5]) it was 4530 nM.
